≈ marks a conversion by molar mass, not a printed value.
How the values were obtained:
[1] = test system: Escherichia coli; assay: Antibacterial activity against Escherichia coli ATCC 9637 after 16 hrs by microtiter broth dilution method; assay type: functional; settings: W
[2] = test system: Pseudomonas aeruginosa; assay: Antibacterial activity against Pseudomonas aeruginosa ATCC BAA-427 after 16 hrs by microtiter broth dilution method; assay type: functional
[3] = test system: Staphylococcus aureus; assay: Antibacterial activity against Staphylococcus aureus ATCC 25923 after 16 hrs by microtiter broth dilution method; assay type: functional
[4] = test system: Staphylococcus aureus; assay: Antibacterial activity against methicillin-resistant Staphylococcus aureus ATCC 700699 after 16 hrs by microtiter broth dilution method; assay type: functional
[5] = test system: Staphylococcus aureus; assay: Antibacterial activity against […] Staphylococcus aureus ATCC 29213 after 16 hrs by microtiter broth dilution method; assay type: functional
[6] = test system: Staphylococcus aureus; assay: Antibacterial activity against methicillin/gentamicin-resistant Staphylococcus aureus ATCC 33592 after 16 hrs by microtiter broth dilution method; assay type: functional
[7] = test system: Klebsiella pneumoniae; assay: Antibacterial activity against Klebsiella pneumoniae ATCC 27736 after 16 hrs by microtiter broth dilution method; assay type: functional
[8] = test system: Candida albicans; assay: Antifungal activity against Candida albicans after 16 hrs by microtiter broth dilution method; assay type: functional
[9] = test system: Cryptococcus neoformans; assay: Antifungal activity against Cryptococcus neoformans after 16 hrs by microtiter broth dilution method; assay type: functional
[10] = test system: Sporothrix schenckii; assay: Antifungal activity against Sporothrix schenckii after 16 hrs by microtiter broth dilution method; assay type: functional
[11] = test system: Trichophyton mentagrophytes; assay: Antifungal activity against Trichophyton mentagrophytes after 16 hrs by microtiter broth dilution method; assay type: functional
[12] = test system: Aspergillus fumigatus; assay: Antifungal activity against Aspergillus fumigatus after 16 hrs by microtiter broth dilution method; assay type: functional
[13] = test system: Candida parapsilosis; assay: Antifungal activity against Candida parapsilosis ATCC 22019 after 16 hrs by microtiter broth dilution method; assay type: functional
[14] = Hemolytic activity in human RBC at 100 ug/ml after 1 hr; settings: erythrocyte
[15] = Lodderomyces parapsilosis, ATCC 22019, 16 h

| Compound | MIC [1] | MIC ([2]; ATCC BAA-427, 16 h) | MIC ([3]; ATCC 25923, 16 h) | MIC ([4]; ATCC 700699, 16 h) | MIC ([5]; ATCC 29213, 16 h) | MIC ([6]; ATCC 33592, 16 h) | MIC ([7]; ATCC 27736, 16 h) | MIC [8] | MIC [9] | MIC [10] | MIC [11] | MIC [12] | MIC [13, 15] | Activity [14] | further results |
| --- | --- | --- | --- | --- | --- | --- | --- | --- | --- | --- | --- | --- | --- | --- | --- |
| CCOC(=O)c1csc(/N=C/c2cc(/C=C/C(=O)c3cccs3)cc(C(C)(C)C)c2O)n1 | > 107 µM | > 107 µM | 13.3 µM (≈ 6.23 µg/mL) | 13.3 µM (≈ 6.23 µg/mL) | 6.7 µM (≈ 3.14 µg/mL) | 3.3 µM (≈ 1.55 µg/mL) | > 107 µM | > 107 µM | > 107 µM | > 107 µM | > 107 µM | > 107 µM | > 107 µM | Non-toxic | – |
| GENTAMICIN | 6.5 µM | – | – | – | – | – | – | > 105 µM | 105 µM | 105 µM | 105 µM | 105 µM | – | – | MIC [2]: 1.6 µM; MIC [3]: 1.6 µM; MIC [4]: 105 µM; MIC [5]: 3.3 µM; MIC [6]: 105 µM; MIC [7]: 3.3 µM; MIC [13]: 105 µM |
| CN[C@H](CC(C)C)C(=O)N[C@H]1C(=O)N[C@@H](CC(N)=O)C(=O)N[C@H]2C(=O)N[C@H]3C(=O)N[C@H](C(=O)N[C@H](C(=O)O)c4cc(O)cc(O)c4-c4cc3ccc4O)[C@H](O)c3ccc(c(Cl)c3)Oc3cc2cc(c3O[C@@H]2O[C@H](CO)[C@@H](O)[C@H](O)[C@H]2O[C@H]2C[C@](C)(N)[C@H](O)[C@H](C)O2)Oc2ccc(cc2Cl)[C@H]1O [VANCOMYCIN] | > 157 µM | > 157 µM | 2.4 µM (≈ 3.48 µg/mL) | 9.8 µM (≈ 14.2 µg/mL) | 1.2 µM (≈ 1.74 µg/mL) | 2.4 µM (≈ 3.48 µg/mL) | > 157 µM | > 157 µM | 157 µM (≈ 227 µg/mL) | 157 µM (≈ 227 µg/mL) | 157 µM (≈ 227 µg/mL) | 157 µM (≈ 227 µg/mL) | 157 µM (≈ 227 µg/mL) | – | – |
| COc1ccc(-c2csc(/N=C/c3cc(/C=C/C(=O)c4cccs4)cc(C(C)(C)C)c3O)n2)cc1OC | > 93.9 µM | > 93.9 µM | 23.5 µM (≈ 12.5 µg/mL) | 11.7 µM (≈ 6.23 µg/mL) | 11.7 µM (≈ 6.23 µg/mL) | 11.7 µM (≈ 6.23 µg/mL) | > 93.9 µM | > 93.9 µM | > 93.9 µM | > 93.9 µM | > 93.9 µM | > 93.9 µM | > 93.9 µM | Non-toxic | – |
| C[C@@H]1[C@H](O)[C@@H](C)/C=C/C=C/C=C/C=C/C=C/C=C/C=C/[C@H](O[C@@H]2O[C@H](C)[C@@H](O)[C@H](N)[C@@H]2O)C[C@@H]2O[C@](O)(C[C@@H](O)C[C@@H](O)[C@H](O)CC[C@@H](O)C[C@@H](O)CC(=O)O[C@H]1C)C[C@H](O)[C@H]2C(=O)O [AMPHOTERICIN B] | > 54.1 µM | > 54.1 µM | > 54.1 µM | > 54.1 µM | > 54.1 µM | > 54.1 µM | > 54.1 µM | – | 0.1 µM (≈ 0.0924 µg/mL) | 0.3 µM (≈ 0.277 µg/mL) | 0.3 µM (≈ 0.277 µg/mL) | 0.5 µM (≈ 0.462 µg/mL) | – | – | – |
| CCOC(=O)c1csc(/N=C/c2cc(/C=C/C(=O)c3ccc(OC)cc3)cc(C(C)(C)C)c2O)n1 | > 102 µM | > 102 µM | 12.7 µM (≈ 6.26 µg/mL) | 12.7 µM (≈ 6.26 µg/mL) | 12.7 µM (≈ 6.26 µg/mL) | 3.2 µM (≈ 1.58 µg/mL) | > 102 µM | > 102 µM | > 102 µM | > 102 µM | > 102 µM | > 102 µM | > 102 µM | Non-toxic | – |
| COc1ccc(C(=O)/C=C/c2cc(/C=N/c3nc(-c4ccc(OC)c(OC)c4)cs3)c(O)c(C(C)(C)C)c2)cc1 | > 89.8 µM | > 89.8 µM | 11.2 µM (≈ 6.23 µg/mL) | 11.2 µM (≈ 6.23 µg/mL) | 11.2 µM (≈ 6.23 µg/mL) | 5.6 µM (≈ 3.12 µg/mL) | > 89.8 µM | > 89.8 µM | > 89.8 µM | > 89.8 µM | > 89.8 µM | > 89.8 µM | > 89.8 µM | Non-toxic | – |
| COc1ccc(C(=O)/C=C/c2cc(/C=N/c3nc(-c4ccc(OC)cc4)cs3)c(O)c(C(C)(C)C)c2)cc1 | > 94.9 µM | > 94.9 µM | 11.9 µM (≈ 6.27 µg/mL) | 11.9 µM (≈ 6.27 µg/mL) | 11.9 µM (≈ 6.27 µg/mL) | 3 µM (≈ 1.58 µg/mL) | > 94.9 µM | > 94.9 µM | > 94.9 µM | > 94.9 µM | > 94.9 µM | > 94.9 µM | > 94.9 µM | Non-toxic | – |
| CCn1cc(C(=O)O)c(=O)c2cc(F)c(N3CCNCC3)cc21 [NORFLOXACIN] | – | 1 µM (≈ 0.319 µg/mL) | 0.5 µM (≈ 0.16 µg/mL) | 33.6 µM (≈ 10.7 µg/mL) | 1 µM (≈ 0.319 µg/mL) | 0.5 µM (≈ 0.16 µg/mL) | 0.1 µM (≈ 0.0319 µg/mL) | > 33.6 µM | 33.6 µM (≈ 10.7 µg/mL) | 33.6 µM (≈ 10.7 µg/mL) | 33.6 µM (≈ 10.7 µg/mL) | 33.6 µM (≈ 10.7 µg/mL) | 33.6 µM (≈ 10.7 µg/mL) | – | – |

Reference: ChEMBL document CHEMBL3608288, “Novel Chalcone-Thiazole Hybrids as Potent Inhibitors of Drug Resistant Staphylococcus aureus” (ACS Med Chem Lett, 2015)
